The assay relates to L. donovani-infected THP-1 macrophages, intracellular amastigote imaging. Put plainly: intracellular L. donovani amastigote inhibition, imaging, THP-1 host macrophages, host toxicity (AID 1159564).
Where [1] appears, read: measured here: THP-1 host cell toxicity.
The mark [2] stands for this setting: measured here: amastigotes per macrophage.

As a reminder, the IC50 is the concentration at which inhibition is half-maximal.

Calls of active or inactive are those of the source. How the calls were made is not given here.

For `Cc1ccc(Nc2nc(N)nc(CNC(c3nc4ccccc4[nH]3)C(C)C)n2)cc1` (configuration not stated), the IC50 is 2 µM. The molecule further registered an IC50 under setting [1] of 25 µM. This molecule gave an IC50 under setting [2] of 1.3 µM.

Regarding `Cc1ccc(S(=O)(=O)Nc2ccc(CN3CCN(C(=O)c4cccc(C)c4)CC3)cc2)cc1`, the IC50 was 40 µM. In addition, the IC50 under setting [1] was found to be 40 µM. This molecule also gave an IC50 under setting [2] of 32 µM.

As for `COc1ncc(-c2ccc3nccc(-c4ccncc4)c3c2)cc1NS(C)(=O)=O`, the IC50 is 2.5 µM. The IC50 under setting [1] was determined as 3.2 µM. The molecule further showed an IC50 under setting [2] of 0.63 µM.

Take `COc1cc(C2SCC(=O)Nc3c2c(C)nn3-c2nc3ccccc3s2)cc(OC)c1O` (configuration not stated): the IC50 is 0.32 µM. Under setting [1], this molecule returned an IC50 of over 50 µM. The same molecule yielded an IC50 under setting [2] of 0.25 µM.

As to `Clc1ccc(CN2CCN(C3=NCCN3)CC2)cc1Cl`, the IC50 is > 50 µM (inactive). In addition, the IC50 under setting [1] is over 50 µM. Further, the IC50 under setting [2] is over 50 µM.

On to `COc1ccccc1C=CCN1C[C@H]2CCC[C@@H](C1)C2(O)c1cccnc1` (some centres not stated), for which the IC50 is > 50 µM (inactive). This molecule returned an IC50 under setting [1] of 40 µM. Under setting [2], the IC50 amounted to 32 µM.

With `Nc1nc(-c2ccccn2)nc(-n2nc(-c3cccc(C(F)(F)F)c3)cc2N)n1`, the concentration for half-maximal inhibition (IC50) is 0.79 µM. This molecule displayed an IC50 under setting [1] of 5 µM. Besides, the IC50 under setting [2] worked out at 0.5 µM.

With `COc1cc(-c2noc(CC#N)n2)ccc1OC(F)F`, the IC50 was > 50 µM (inactive). Under setting [1], this molecule displayed an IC50 of 50 µM. The same molecule gave an IC50 under setting [2] of over 50 µM.

For the molecule `CCN(CC)S(=O)(=O)c1ccc(C(=O)Nc2cc(C)nn2-c2nc(C)c(C)c(=O)[nH]2)cc1`, the IC50 was > 50 µM (inactive). The same molecule registered an IC50 under setting [1] of 3.2 µM. For the same molecule, the IC50 under setting [2] is over 50 µM.

`O=C(NCc1nnc2n1CCCCC2)c1csc(-c2ccccc2)n1`: the IC50 was > 50 µM (inactive). This molecule displayed an IC50 under setting [1] of over 50 µM. Under setting [2], this molecule registered an IC50 of over 50 µM.

In the case of `COc1ccccc1CNc1cc(C2CC2)nc(-c2nccn2C)n1`, the IC50 is 0.5 µM. Under setting [1], the IC50 was found to be 16 µM. In addition, the IC50 under setting [2] came out at 0.4 µM.

With `COc1ccccc1-n1c(SCC(=O)Nc2ccc3c(c2)OCO3)nc2c(c1=O)SCC2`, the IC50 is 7.9 µM. Under setting [1], this molecule displayed an IC50 of over 50 µM. Under setting [2], this molecule came in with an IC50 of 5 µM.

In the case of `COCc1cc(Nc2cccc(Cl)c2)nc(-c2ccccn2)n1`, the IC50 is 1.6 µM. For the same molecule, the IC50 under setting [1] is over 50 µM. Under setting [2], this molecule came in with an IC50 of 0.63 µM.

Take `O=C(COc1ccccc1)Nc1ccccc1C(=O)Nc1nccs1`: the IC50 is > 50 µM (inactive). Under setting [1], this molecule registered an IC50 of 7.9 µM. The molecule also had an IC50 under setting [2] of over 50 µM.

Take `c1ccc(CNc2cccc3ccncc23)cc1`: the IC50 was 7.9 µM. In addition, the IC50 under setting [1] was determined as 50 µM. The molecule also yielded an IC50 under setting [2] of 5 µM.

On to `CCOc1ccc(CC(=O)N2c3ccccc3CC2C(=O)NC)cc1` (configuration not stated), for which the IC50 is > 50 µM (inactive). The IC50 under setting [1] is over 50 µM. Further, under setting [2], the IC50 is over 50 µM.

`COc1cccc2sc(CN(C)C(=O)C3CNCCN3c3ccc(F)cc3)c(C)c12` (configuration not stated): the IC50 was 6.3 µM. This molecule had an IC50 under setting [1] of 13 µM. The molecule also displayed an IC50 under setting [2] of 4 µM.

As to `CN(C)c1ncc(-c2cncn2CCOc2ccc(Cl)cc2)cn1`, the IC50 was > 50 µM (inactive). Further, under setting [1], the IC50 was over 50 µM. The same molecule showed an IC50 under setting [2] of over 50 µM.

In the case of `COc1ccc(C2=NCC(CSc3nnc(-c4ccc5c(c4)OCO5)o3)S2)cc1` (configuration not stated), the IC50 was 1 µM. The IC50 under setting [1] is over 50 µM. The molecule also displayed an IC50 under setting [2] of 0.4 µM.

With `COc1ccc(OC)c(S(=O)(=O)N(Cc2c(F)cccc2F)[C@@H]2CCN(C#N)C2)c1`, the IC50 was 25 µM. The molecule also yielded an IC50 under setting [1] of 20 µM. Under setting [2], the IC50 was 20 µM.

`Nc1nccc(-c2csc(Nc3ccc(Cl)cc3)n2)n1`: the half-inhibitory concentration (IC50) was 1 µM. Moreover, the IC50 under setting [1] is over 50 µM. The IC50 under setting [2] was 1 µM.

As to `CS(=O)(=O)NC1CCC(Oc2cc3cnccc3cc2-c2ccsc2)CC1` (configuration not stated), the half-maximal inhibitory concentration (IC50) was 50 µM. Under setting [1], this molecule yielded an IC50 of 16 µM. The molecule further displayed an IC50 under setting [2] of 20 µM.

Take `Cc1nc(N2CCC(C(=O)N3CCC(O)(c4cccnc4)CC3)CC2)nc2ccc(C(C)C)cc12`: the half-maximal inhibitory concentration (IC50) was 50 µM. Under setting [1], this molecule yielded an IC50 of 25 µM. Besides, the IC50 under setting [2] came to 10 µM.

For the molecule `CC(Cn1ccnc1)NC(=O)C1CC1c1cccc(Cl)c1Cl` (configuration not stated), the IC50 was > 50 µM (inactive). Besides, the IC50 under setting [1] was over 50 µM. The molecule further returned an IC50 under setting [2] of 10 µM.

For `O=C1NCc2cccc(Nc3nc(NC4CCC(O)CC4)ncc3Br)c21` (configuration not stated), the IC50 was 0.16 µM. Besides, the IC50 under setting [1] is 0.1 µM. Under setting [2], this molecule came in with an IC50 of 0.13 µM.

On to `COc1ccc2ncc(Cl)c(CCN3CC[C@@H](NCc4cc5c(cn4)OCS5)[C@H](O)C3)c2n1`, for which the IC50 was 13 µM. The IC50 under setting [1] is 25 µM. Under setting [2], this molecule displayed an IC50 of 7.9 µM.

On to `CN(C)c1ccc(N)cc1CN(CC1CCCO1)S(C)(=O)=O` (configuration not stated), for which the IC50 was 13 µM. Also, the IC50 under setting [1] was over 50 µM. Also, the IC50 under setting [2] is 10 µM.

Consider `COc1ccc(C(=O)Nc2c(C)nn(COc3cccc(C(F)(F)F)c3)c2C)cc1`, for which the IC50 was > 50 µM (inactive). The IC50 under setting [1] was found to be 32 µM. Moreover, the IC50 under setting [2] is over 50 µM.

As for `CCS(=O)(=O)Nc1ccc(C2=NN(C(=O)c3cccs3)C(c3ccccc3OC)C2)cc1` (configuration not stated), the IC50 was 7.9 µM. In addition, under setting [1], the half-maximal inhibitory concentration (IC50) was over 50 µM. In addition, the IC50 under setting [2] was found to be 7.9 µM.

Turning to `N#Cc1ccccc1S(=O)(=O)N1CCN(C(=O)CNC(=O)c2ccc3c(c2)OCO3)CC1`, the 50% inhibitory concentration (IC50) is 5 µM. This molecule also showed a concentration for half-maximal inhibition (IC50) under setting [1] of over 50 µM. The IC50 under setting [2] is 1.6 µM.

As to `O=C(NCC1CCCCC1)c1cnns1`, the IC50 is > 50 µM (inactive). Under setting [1], this molecule registered an IC50 of over 50 µM. In addition, the IC50 under setting [2] was determined as 10 µM.

On to `CC(=O)Nc1nc(-c2cc(C)ccc2C)c(C)s1`, for which the IC50 is > 50 µM (inactive). The molecule also displayed an IC50 under setting [1] of over 50 µM. This molecule also yielded an IC50 under setting [2] of 32 µM.

Regarding `Cc1ccc2sc(NC(=O)Cn3cnc([N+](=O)[O-])n3)nc2c1`, the IC50 is > 50 µM (inactive). This molecule also returned an IC50 under setting [1] of over 50 µM. The molecule further gave an IC50 under setting [2] of over 50 µM.

Take `CNc1cc(C)nc(C2CN(C(=O)c3n[nH]c4ccccc34)CCO2)c1` (configuration not stated): the IC50 is > 50 µM (inactive). In addition, the IC50 under setting [1] was over 50 µM. Further, under setting [2], the IC50 is over 50 µM.

For `N#Cc1cccc(Nc2nccc(N3CCC(NS(=O)(=O)c4cccc(C#N)c4)CC3)n2)c1`, the IC50 is 10 µM. Under setting [1], this molecule registered an IC50 of over 50 µM. Further, under setting [2], the 50% inhibitory concentration (IC50) came out at 6.3 µM.

Turning to `O=c1[nH]c(NCCCNCc2cc(Br)cc(Br)c2)nc2ccsc12`, the IC50 is 5 µM. Besides, under setting [1], the IC50 was found to be 16 µM. Under setting [2], this molecule yielded an IC50 of 2.5 µM.

Regarding `COCCn1c(-c2ccccc2)cnc1NCc1ccccc1OC`, the IC50 was 6.3 µM. Under setting [1], this molecule had an IC50 of 50 µM. Moreover, the IC50 under setting [2] is 6.3 µM.

In the case of `CN1CCN(c2nc(-c3ccc(Cl)cc3)c3c(N)n(C)nc3n2)CC1`, the IC50 is 40 µM. The IC50 under setting [1] was found to be 40 µM. The IC50 under setting [2] was 32 µM.

For the molecule `COc1ccccc1C1CC(c2ccc(NS(C)(=O)=O)cc2)=NN1C(=O)c1cccs1` (configuration not stated), the IC50 is 4 µM. The same molecule yielded an IC50 under setting [1] of over 50 µM. Besides, under setting [2], the IC50 is 2.5 µM.

Values taken from PubChem BioAssay AID1159564 (GlaxoSmithKline (GSK), 2015).
